Reference: patent US20200038413A1, “METHODS OF TREATING PARKINSON'S DISEASE USING AMINOSTEROL COMPOSITIONS” (Enterin, Inc., priority 2018, published 2020)

Columns and labels:
[1] = tested on: patients with PD and constipation; test: Phase 2 trial Stage 2: daily oral dosing, bowel function / stool related indices; format: in vivo, human
Procedure: Following successful screening, all subjects underwent a 14-day run-in period where the degree of constipation was assessed through a validated daily log (Zinsmeister et al. 2013) establishing baseline CSBMs/week. Subjects with an average of <3 CSBMs/week proceeded to dosing.
In Stage 2, 34 patients were evaluated.
The primary efficacy outcome variable was whether or not a subject was a “success” or “failure”. This is an endpoint based on subject diary entries for the “fixed dose” period prior to the endpoint assessment defined as average complete stool frequency increase by 1 or more over baseline, or 3 or more complete spontaneous stools/week. The subject was deemed a “success” if s/he met one or more of the criteria listed above, otherwise the subject was deemed a “failure”. The primary analysis was based on all subjects with a baseline assessment and an assessment at the end of the “fixed-dose” period and was a comparison of the proportion of successes with 0.10 (the null hypothesis corresponding to no treatment effect).

[2] = tested on: patients with PD and constipation; test: Phase 2 trial: circadian rhythm of wrist skin temperature; format: in vivo, human; details: fixed dose vs baseline, 12 patients
Procedure: Assessments were made at baseline and at the end of the fixed dose and washout periods. Circadian system status was evaluated by continuously monitoring wrist skin temperature (Thermochron iButton DS1921H; Maxim, Dallas) following published procedures (Sarabia et al. 2008).
Circadian rhythm of skin temperature was evaluable in 12 patients (i.e., those who had recordings that extended from baseline through washout). Circadian system functionality was evaluated by continuously monitoring wrist skin temperature using a temperature sensor (Thermochron iButton DS1921H; Maxim, Dallas, TX) (Sarabia et al. 2008). A nonparametric analysis was performed for each participant to characterize DST as previously described (Sarabia et al. 2008; Ortiz-Tudela et al. 2010).
Briefly, this analysis includes the following parameters: (i) the inter-daily stability (the constancy of 24-hour rhythmic pattern over days, IS); (ii) intra-daily variability (rhythm fragmentation, IV); (iii) average of 10-minute intervals for the 10 hours with the minimum temperature (L10); (iv) average of 10-minute intervals for the 5 hours with the maximum temperature (M5) and the relative amplitude (RA), which was determined by the difference between M5 and L10, divided by the sum of both. Finally, the Circadian Function Index (CFI) was calculated by integrating IS, IV, and RA. Consequently, CFI is a global measure that oscillates between 0 for the absence of circadian rhythmicity and 1 for a robust circadian rhythm (Ortiz-Tudela et al. 2010).

[3] = tested on: colon segments (propagating contractile clusters); test: Ex vivo colon motility, A53T human α-synuclein overexpressing mice and WT littermates; parameters: species or system mouse
[4] = tested on: WT and A53T mice; test: In vivo fecal pellet output test; parameters: species or system mouse; details: for FPO in the first 15 min: Day 5 vs Day 0
Procedure: In vivo fecal pellet output: Mice were subjected to the FPO test 1 day prior to the start of dosing with squalamine or vehicle (sterile water) (day 0). Mice were fasted for one hour and then given access to food one hour before FPO testing. On days 1-5 mice were fasted for one hour prior to oral gavage with vehicle or 20, 40, 80, or 120mg/kg squalamine. Oral gavage occurred between 10:00 to 11:00 am daily. On day 5, the FPO test was performed 1 hour after the final dose was administered. Total number of stool pellets produced in the first 15 min and over a 60 min period was measured in each group. Stool water content was measured by comparing wet and dry weights of the stool.

[5] = Preclinical oral studies in rats; format: in vivo
[6] = Preclinical oral studies in dogs; format: in vivo
[7] = tested on: C. elegans model of PD; details: cited from earlier work

Question: Which CSBM ([1]; Stage 2, wash-out, mean (SD), baseline 1.2 (0.90)) does the source give for `CC(C)[C@@H](CC[C@@H](C)[C@H]1CC[C@H]2[C@@H]3[C@H](O)C[C@H]4C[C@@H](NCCCNCCCCN)CC[C@]4(C)[C@H]3CC[C@]12C)OS(=O)(=O)O` (single isomer, unassigned) [squalamine (ENT-01), squalamine] here?
Answer: 1.8 (1.19)

Question: What about the SBM ([1]; Stage 2, wash-out, mean (SD), baseline 2.6 (1.45)) of the same molecule?
Answer: 3.2 (1.80)

Question: And the “response rate (CSBM within 24 hours on at least 2 of 3 days)” value ([1]; Stage 2 daily dosing, 75 mg)?
Answer: 26%

Question: What about the “decrease in use of rescue medication” value ([1]; fixed dose vs baseline) of the same molecule?
Answer: 83%

Question: And the “improvement in SBM” value ([1]; fixed dose vs baseline)?
Answer: 73%

Question: What about the “improvement in consistency (Bristol stool scale)” value ([1]; fixed dose vs baseline) of the same molecule?
Answer: 52%

Question: What about the “improvement in ease of passage” value ([1]; fixed dose vs baseline) of the same molecule?
Answer: 16%

Question: What about the “relative amplitude (RA)” value ([2]; p=0.001) of the same molecule?
Answer: increasing

Question: And the “circadian function index (CFI)” value ([2]; p=0.016)?
Answer: increasing

Question: What about the “rhythm stability (IS)” value ([2]; p=0.026) of the same molecule?
Answer: increasing

Question: What about the “rhythm fragmentation (IV)” value ([2]; p=0.031) of the same molecule?
Answer: reducing

Question: And the PCC velocity ([3]; A53T mice, baseline state, intraluminal 30 μM, without drug 1.2±0.2)?
Answer: 2.3±0.4 mm/s

Question: And the PCC velocity ([3]; A53T mice, colonic expansion (mechanical threshold), 30 μM, without drug 1.6±0.3)?
Answer: 2.1±0.3 mm/s

Question: What about the PCC velocity ([3]; WT mice, baseline state, intraluminal 30 μM, without drug 1.7±0.3) of the same molecule?
Answer: 2.8±0.4 mm/s

Question: What about the PCC velocity ([3]; WT mice, colonic expansion (mechanical threshold), 30 μM, without drug 3.0±0.7) of the same molecule?
Answer: 2.4±0.3 mm/s

Question: And the “FPO in the first 15 min” value ([4]; A53T mice, 20, 40 and 80 mg/kg oral gavage for 5 days)?
Answer: significantly increased

Question: And the fecal water content ([4]; A53T mice, 80 and 120 mg/kg oral)?
Answer: significantly increased

Question: What about the fecal water content ([4]; WT mice, 80 mg/kg oral) of the same molecule?
Answer: significantly increased

Question: And the “FPO in the first 15 min” value ([4]; WT mice, 40 and 120 mg/kg oral gavage for 5 days)?
Answer: significantly increased

Question: What about the tolerability ([5]; oral) of the same molecule?
Answer: well tolerated

Question: What about the oral bioavailability ([5]; preclinical studies) of the same molecule?
Answer: about 0.1%

Question: What about the tolerability [6] of the same molecule?
Answer: well tolerated

Question: What about the muscle paralysis ([7]; C. elegans model of PD (Perni et al. 2017)) of the same molecule?
Answer: complete reversal of muscle paralysis

Question: What about the “formation of aggregates of αS” value ([7]; C. elegans model of PD in vivo (Perni et al. 2017)) of the same molecule?
Answer: inhibit the formation of aggregates of αS
